Legend:
[1] = system: pMAPK (Thr202/Tyr204) in MDA-MB453 or DMS 114 cells; experiment: Detection of pMAPK (Thr202/Tyr204) using Alpha ELISA (pERK alphaLISA); type: cell-based; details: 1 hr incubation with compound; cell line not given (MDA-MB453 or DMS 114)
Method: Detection of pMAPK (Thr202/Tyr204) Using Alpha ELISA
MDA-MB453 or DMS 114 cells were plated in 96-well cell culture plates at a density of 1×10^5 cells or 3×10^4 cells, respectively. Cells were allowed to attach, and growth media was replaced with serum free media. Compounds were added at the indicated concentrations. Following 1 hr incubation in the presence of compound, cells were collected. For the DMS 114 cells, 100 ng/mL FGF2 was added for 10 min prior to cell collection. Cell lysates were prepared and processed according to manufacturer instruction (AlphaScreen® SureFire™ Phospho-ERK 1/2 Kit (Perkin Elmer).

Hep3B xenograft tumors = experiment: Hep3B liver cancer cell subcutaneous xenograft model in nude mice; type: in vivo
Method: The effects of Compound 27 on tumor growth inhibition in Hep3B liver cancer cell subcutaneous xenograft model with different dosages were studied.
Female nude mice (Mus musculus) age 6 to 8 weeks were used. Tumor cell culture and inoculation: Hep3B cells were cultured with EMEM medium (Invitrogen, USA) supplemented with 10% FBS (Gibco, Australia). The cells were harvested in 90% confluence, and the viability was no less than 90%. Mice were implanted subcutaneously (s.c.) with 200 μL of 10×10^6 Hep3B cells in 50% Matrigel in the right flank at the beginning of the study.
Animal grouping and dosing schedule: Ten days after cell implantation, when tumors reached an average volume of 284 mm^3, […] were selected based on tumor volume and randomly assigned to 5 treatment groups (n=9). The day of randomization was denoted as day 0 and the treatment was started from then on.
Tumor volume and body weight measurements: Tumor size was measured twice per week in two dimensions using a caliper, and the volume was expressed in mm^3 using the formula: V=0.5 a× b^2 where a and b were the long and short diameters of the tumor, respectively. Body weight was measured at least twice weekly.

wild type FGFR-4 = target: T1, wild type FGFR-4 (Homo sapiens, UniProt P22455); experiment: FGFR-4 wild type assay at Km (Caliper electrophoretic mobility shift); type: biochemical; details: wild type FGFR-4, 400 uM ATP, 25 C, 90 minutes; read-out: INH-FGFR4
T1 construct: purchased Carna Biosciences, Inc
T1 sequence (P22455 22-802): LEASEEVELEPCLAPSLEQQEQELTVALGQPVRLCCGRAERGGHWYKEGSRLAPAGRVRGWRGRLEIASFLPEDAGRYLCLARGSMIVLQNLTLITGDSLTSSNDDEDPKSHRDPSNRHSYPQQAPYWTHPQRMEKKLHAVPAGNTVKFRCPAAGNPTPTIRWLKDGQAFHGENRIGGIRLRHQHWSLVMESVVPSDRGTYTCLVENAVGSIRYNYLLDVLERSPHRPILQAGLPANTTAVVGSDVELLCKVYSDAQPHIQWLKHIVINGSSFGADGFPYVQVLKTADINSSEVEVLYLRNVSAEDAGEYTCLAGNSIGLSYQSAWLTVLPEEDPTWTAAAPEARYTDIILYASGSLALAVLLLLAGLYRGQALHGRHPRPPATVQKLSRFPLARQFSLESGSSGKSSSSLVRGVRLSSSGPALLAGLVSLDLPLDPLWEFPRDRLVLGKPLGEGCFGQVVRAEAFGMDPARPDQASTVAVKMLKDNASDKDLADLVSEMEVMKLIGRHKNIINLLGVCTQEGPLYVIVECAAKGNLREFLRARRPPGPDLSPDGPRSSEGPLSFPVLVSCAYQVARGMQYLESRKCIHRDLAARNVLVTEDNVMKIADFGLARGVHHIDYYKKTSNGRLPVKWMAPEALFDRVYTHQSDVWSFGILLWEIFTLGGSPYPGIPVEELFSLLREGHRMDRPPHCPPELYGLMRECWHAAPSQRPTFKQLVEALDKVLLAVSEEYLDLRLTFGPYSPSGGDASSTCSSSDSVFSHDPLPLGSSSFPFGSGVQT
Method: Biochemical Activity Assessment In order to assess the activity of chemical compounds against the relevant kinase of interest, the Caliper LifeSciences electrophoretic mobility shift technology platform is utilized. Fluorescently labeled substrate peptide is incubated in the presence dosed levels of compounds, a set concentration of kinase and of ATP, so that a reflective proportion of the peptide is phosphorylated. At the end of the reaction, the mix of phosphorylated (product) and non-phosphorylated (substrate) peptides are passed through the microfluidic system of the Caliper LabChip® EZ Reader II, under an applied potential difference. The presence of the phosphate group on the product peptide provides a difference in mass and charge between the product peptide and the substrate peptide, resulting in a separation of the substrate and product pools in the sample. As the pools pass the LEDS within the instrument, these pools are detected and resolved as separate peaks. The ratio between these peaks therefore reflects the activity of the chemical matter at that concentration in that well, under those conditions.
FGFR-4 wild type assay at Km: In each well of a 384-well plate, 0.5 ng/ul of wild type FGFR-4 (Carna Biosciences, Inc.) was incubated in a total of 12.5 ul of buffer (100 mM HEPES pH 7.5, 0.015% Brij 35, 10 mM MgCl2, 1 mM DTT) with 1 uM CSKtide (5-FAM-KKKKEEIYFFFG-NH2) and 400 uM ATP at 25 C for 90 minutes in the presence or absence of a dosed concentration series of compound (1% DMSO final concentration). The reaction was stopped by the addition of 70 ul of Stop buffer (100 mM HEPES pH 7.5, 0.015% Brij 35, 35 mM EDTA and 0.2% of Coating Reagent 3 (Caliper Lifesciences)). The plate was then read on a Caliper LabChip® EZ Reader II (protocol settings: −1.9 psi, upstream voltage −700, downstream voltage −3000, post sample sip 35 s).

Structure (SMILES)	IC50 [1]	tumor response (Hep3B xenograft tumors; 100 mg/kg PO BID, Hep3B xenograft, nude mice)	tumor volume compared with vehicle group (Hep3B xenograft tumors; 30 and 100 mg/kg PO BID, Hep3B xenograft, nude mice)	body weight change (Hep3B xenograft tumors; Hep3B-bearing nude mice, only the 100 mg/kg PO BID group did not lose bodyweight)	tumor volume compared with vehicle group during the entire study (Hep3B xenograft tumors; all treated groups, 10 mg/kg to 100 mg/kg, Hep3B xenograft, nude mice)	tolerability (Hep3B xenograft tumors; current dosages and dosing schedule (10 to 100 mg/kg PO BID), nude mice)	dose dependence of tumor inhibition efficiency (Hep3B xenograft tumors; increasing dosage from 10 mg/kg to 100 mg/kg)	IC50 (wild type FGFR-4)
C=CC(=O)N[C@H]1COC[C@H]1Nc1ncc2cc(-c3c(Cl)c(OC)cc(OC)c3Cl)ccc2n1 [Compound 27, N-[(3R,4S)-4-{[6-(2,6-dichloro-3,5-dimethoxyphenyl)quinazolin-2-yl]amino}oxolan-3-yl]prop-2-enamide]	< 10 nM	regressed and almost disappeared	Statistically significant reduction of tumor volumes	could alleviate body weight loss	significant reduction of tumor volume	well tolerated	enhanced the tumor inhibition efficiency	< 10 nM
C=CC(=O)N[C@H]1CN(C(=O)CN2CCCC2)C[C@H]1Nc1ncc2cc(-c3c(Cl)c(OC)cc(OC)c3Cl)ccc2n1 [Compound 91]	10 to 100 nM							< 10 nM

Reference: patent publication US10875837B2, “Inhibitors of the fibroblast growth factor receptor” (BLUEPRINT MEDICINES CORPORATION, priority 2013, dated 2020)
